Measured values as given in US20240391959A1, “BICYCLIC PEPTIDE LIGANDS […] FOR TRANSFERRIN RECEPTOR 1 (TfR1)” (BicycleTx Limited, priority 2020, published 2024).
Where “and” joins values, the source holds several entries; their conditions need not be identical. Equal entries are not always repeated.

Legend:
cynomolgus TfR1 = assay type: binding
human TfR1 = human TfR1 (Homo sapiens, UniProt P02786); experiment: biochemical; assay type: binding; set-up: His6-tagged TfR1 (a.a. 89-760) (ACRO Biosystems, CD1-H5243 and TFR-C524a); His6; purchased R&D Systems or Acro Biosystems 2474-TR or CD1-H5243
human TfR1, sequence (P02786 89-760): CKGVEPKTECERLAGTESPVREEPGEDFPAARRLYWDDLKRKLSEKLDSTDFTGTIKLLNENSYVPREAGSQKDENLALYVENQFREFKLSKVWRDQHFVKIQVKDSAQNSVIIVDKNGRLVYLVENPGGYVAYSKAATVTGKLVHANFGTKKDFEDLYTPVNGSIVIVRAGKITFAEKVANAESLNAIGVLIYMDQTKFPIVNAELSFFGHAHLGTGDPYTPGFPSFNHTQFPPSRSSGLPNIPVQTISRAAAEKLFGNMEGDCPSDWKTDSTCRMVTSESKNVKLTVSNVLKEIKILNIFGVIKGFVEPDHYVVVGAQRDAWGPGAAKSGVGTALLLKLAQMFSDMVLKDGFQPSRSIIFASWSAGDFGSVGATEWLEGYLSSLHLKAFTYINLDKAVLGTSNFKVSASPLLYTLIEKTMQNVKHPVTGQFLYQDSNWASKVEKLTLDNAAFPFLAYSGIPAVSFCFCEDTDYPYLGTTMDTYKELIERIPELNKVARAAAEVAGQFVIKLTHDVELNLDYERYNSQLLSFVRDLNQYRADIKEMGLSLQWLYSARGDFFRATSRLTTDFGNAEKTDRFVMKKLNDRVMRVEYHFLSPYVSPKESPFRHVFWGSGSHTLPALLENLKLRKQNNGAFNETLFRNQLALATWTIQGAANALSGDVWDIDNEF

Compound	Kd (cynomolgus TfR1)	Ki (human TfR1; Geomean Ki (μM))	Ki (human TfR1; Human TfR1 Ki (nM))
CC[C@H](C)[C@@H]1NC(=O)[C@@H]2CSCC(=O)N3CN(CN(C3)C(=O)CSC[C@@H](C(=O)N[C@@H](C)C(N)=O)NC(=O)[C@H](Cc3cccc4ccccc34)NC(=O)[C@H](CO)NC1=O)C(=O)CSC[C@H](NC(=O)[C@H](C)N)C(=O)N[C@@H](CO)C(=O)N1CCC[C@H]1C(=O)N[C@@H](CC(=O)O)C(=O)N[C@@H](C)C(=O)N[C@@H](Cc1c[nH]cn1)C(=O)N[C@@H](CC(C)C)C(=O)NCC(=O)N2 [BCY16029, A-(SEQ ID NO: 39)-A]	5480 nM		
CC(C)C[C@@H]1NC(=O)[C@H](Cc2ccc(O)cc2)NC(=O)[C@H](C)NC(=O)[C@H](CC(=O)O)NC(=O)[C@@H]2CCCN2C(=O)[C@@H]2CCCN2C(=O)[C@@H](NC(=O)[C@H](C)N)CSCC(=O)N2CN3CN(C2)C(=O)CSC[C@@H](C(=O)N[C@@H](C)C(N)=O)NC(=O)[C@H](Cc2ccc(O)cc2)NC(=O)[C@H](CO)NC(=O)[C@H](C(C)(C)C)NC(=O)[C@H](CSCC3=O)NC(=O)CNC1=O [BCY16964, A-(SEQ ID NO: 22)-A]	514 nM		
CC[C@H](C)[C@@H]1NC(=O)[C@@H]2CSCC(=O)N3CN(CN(C3)C(=O)CSC[C@H](NC(=O)[C@H](CC(N)=O)NC(=O)[C@H](Cc3c[nH]c4ccccc34)NC(=O)[C@@H](N)CC(N)=O)C(=O)N[C@@H](CO)C(=O)N3CCC[C@H]3C(=O)N[C@@H](CC(=O)O)C(=O)N[C@@H](C)C(=O)N[C@@H](Cc3c[nH]cn3)C(=O)N[C@@H](CC(C)C)C(=O)NCC(=O)N2)C(=O)CSC[C@@H](C(=O)N[C@@H](C)C(N)=O)NC(=O)[C@H](Cc2ccc(O)cc2)NC(=O)[C@H](CO)NC1=O [BCY17109, NWN-(SEQ ID NO: 9)-A]	281 nM and 535 nM	0.009 µM	
CC[C@H](C)[C@@H]1NC(=O)[C@@H]2CSCC(=O)N3CN(CN(C3)C(=O)CSC[C@H](NC(=O)[C@@H](NC(=O)[C@H](CCC(=O)O)NC(=O)[C@@H](N)CC(N)=O)C(C)C)C(=O)N[C@@H](CO)C(=O)N3CCC[C@H]3C(=O)N[C@@H](CC(=O)O)C(=O)N[C@@H](C)C(=O)N[C@@H](Cc3c[nH]cn3)C(=O)N[C@@H](CC(C)C)C(=O)NCC(=O)N2)C(=O)CSC[C@@H](C(=O)N[C@@H](C)C(N)=O)NC(=O)[C@H](Cc2ccc(O)cc2)NC(=O)[C@H](CO)NC1=O [BCY17112, NEV-(SEQ ID NO: 9)-A]	2600 nM		
CC[C@H](C)[C@@H]1NC(=O)[C@@H]2CSCC(=O)N3CN(CN(C3)C(=O)CSC[C@@H](C(=O)N[C@@H](CCC(=O)O)C(=O)N3CCC[C@H]3C(=O)N[C@@H](Cc3c[nH]c4ccccc34)C(N)=O)NC(=O)[C@H](Cc3ccc(O)cc3)NC(=O)[C@H](CO)NC1=O)C(=O)CSC[C@H](NC(=O)[C@H](C)N)C(=O)N[C@@H](CO)C(=O)N1CCC[C@H]1C(=O)N[C@@H](CC(=O)O)C(=O)N[C@@H](C)C(=O)N[C@@H](Cc1c[nH]cn1)C(=O)N[C@@H](CC(C)C)C(=O)NCC(=O)N2 [BCY17114, A-(SEQ ID NO: 9)-EPW]	845 nM		
CC[C@H](C)[C@@H]1NC(=O)[C@@H]2CSCC(=O)N3CN(CN(C3)C(=O)CSC[C@@H](C(=O)N3CCC[C@H]3C(=O)N[C@H](C(=O)N[C@H](C(=O)N[C@@H](Cc3c[nH]cn3)C(N)=O)C(C)C)[C@@H](C)CC)NC(=O)[C@H](Cc3ccc(O)cc3)NC(=O)[C@H](CO)NC1=O)C(=O)CSC[C@H](NC(=O)[C@H](C)N)C(=O)N[C@@H](CO)C(=O)N1CCC[C@H]1C(=O)N[C@@H](CC(=O)O)C(=O)N[C@@H](C)C(=O)N[C@@H](Cc1c[nH]cn1)C(=O)N[C@@H](CC(C)C)C(=O)NCC(=O)N2 [BCY17120, A-(SEQ ID NO: 9)-PIVH]	1260 nM		
CC[C@H](C)[C@@H]1NC(=O)[C@@H]2CSCC(=O)N3CN(CN(C3)C(=O)CSC[C@H](NC(C)=O)C(=O)N[C@@H](C)C(=O)N3CCC[C@H]3C(=O)N[C@@H](CC(=O)O)C(=O)N[C@@H](C)C(=O)N[C@@H](Cc3c[nH]cn3)C(=O)N[C@@H](CC(C)C)C(=O)NCC(=O)N2)C(=O)CSC[C@@H](C(N)=O)NC(=O)[C@H](Cc2ccc(O)cc2)NC(=O)[C@H](CO)NC1=O [BCY17986, Ac-(SEQ ID NO: 24)]	4660 nM		
CC[C@H](C)[C@@H]1NC(=O)[C@@H]2CSCC(=O)N3CN(CN(C3)C(=O)CSC[C@H](NC(=O)[C@H](CC(N)=O)NC(=O)[C@H](Cc3c[nH]c4ccccc34)NC(=O)[C@H](CC(N)=O)NC(C)=O)C(=O)N[C@@H](CO)C(=O)N3CCC[C@H]3C(=O)N[C@@H](CC(=O)O)C(=O)N[C@@H](C)C(=O)N[C@@H](Cc3c[nH]cn3)C(=O)N[C@@H](CC(C)C)C(=O)NCC(=O)N2)C(=O)CSC[C@@H](C(N)=O)NC(=O)[C@H](Cc2ccc(O)cc2)NC(=O)[C@H](CO)NC1=O [BCY17992, Ac-NWN-(SEQ ID NO: 9)]	535 nM		
CC[C@H](C)[C@@H]1NC(=O)[C@@H]2CSCC(=O)N3CN(CN(C3)C(=O)CSC[C@@H](C(=O)N[C@@H](CCC(=O)O)C(=O)N3CCC[C@H]3C(=O)N[C@@H](Cc3c[nH]c4ccccc34)C(N)=O)NC(=O)[C@H](Cc3ccc(O)cc3)NC(=O)[C@H](CO)NC1=O)C(=O)CSC[C@H](NC(C)=O)C(=O)N[C@@H](CO)C(=O)N1CCC[C@H]1C(=O)N[C@@H](CC(=O)O)C(=O)N[C@@H](C)C(=O)N[C@@H](Cc1c[nH]cn1)C(=O)N[C@@H](CC(C)C)C(=O)NCC(=O)N2 [BCY17994, Ac-(SEQ ID NO: 9)-EPW]	688 nM	0.008 µM	0.008 µM
CC[C@H](C)[C@@H]1NC(=O)[C@@H]2CSCC(=O)N3CN(CN(C3)C(=O)CSC[C@H](NC(=O)[C@H](CC(N)=O)NC(=O)[C@H](Cc3cccc4ccccc34)NC(=O)[C@H](CC(N)=O)NC(C)=O)C(=O)N[C@@H](CO)C(=O)N3CCC[C@H]3C(=O)N[C@@H](CC(=O)O)C(=O)N[C@@H](C)C(=O)N[C@@H](Cc3c[nH]cn3)C(=O)N[C@@H](CC(C)C)C(=O)NCC(=O)N2)C(=O)CSC[C@@H](C(N)=O)NC(=O)[C@H](Cc2ccc(O)cc2)NC(=O)[C@H](CO)NC1=O [BCY18034, Ac-N[1Nal]N-(SEQ ID NO: 9)]	2080 nM		0.01 µM
CC[C@H](C)[C@@H]1NC(=O)[C@@H]2CSCC(=O)N3CN(CN(C3)C(=O)CSC[C@@H](C(=O)N[C@@H](CCC(=O)O)C(=O)N3CC[C@H]3C(=O)N[C@@H](Cc3c[nH]c4ccccc34)C(N)=O)NC(=O)[C@H](Cc3ccc(O)cc3)NC(=O)[C@H](CO)NC1=O)C(=O)CSC[C@H](NC(C)=O)C(=O)N[C@@H](CO)C(=O)N1CCC[C@H]1C(=O)N[C@@H](CC(=O)O)C(=O)N[C@@H](C)C(=O)N[C@@H](Cc1c[nH]cn1)C(=O)N[C@@H](CC(C)C)C(=O)NCC(=O)N2 [BCY18037, Ac-(SEQ ID NO: 9)-E[Aze]W]	1080 nM		
CC[C@H](C)[C@@H]1NC(=O)[C@@H]2CSCC(=O)N3CN(CN(C3)C(=O)CSC[C@@H](C(=O)N[C@@H](CCC(=O)O)C(=O)N3CCC[C@@H]3C(=O)N[C@@H](Cc3c[nH]c4ccccc34)C(N)=O)NC(=O)[C@H](Cc3ccc(O)cc3)NC(=O)[C@H](CO)NC1=O)C(=O)CSC[C@H](NC(C)=O)C(=O)N[C@@H](CO)C(=O)N1CCC[C@H]1C(=O)N[C@@H](CC(=O)O)C(=O)N[C@@H](C)C(=O)N[C@@H](Cc1c[nH]cn1)C(=O)N[C@@H](CC(C)C)C(=O)NCC(=O)N2 [BCY18038, Ac-(SEQ ID NO: 9)-E[dP]W]	1650 nM		
